Reference: US9522133B2, “Substituted 1,2,3,4-tetrahydrocyclopenta[b]indol-3-yl)acetic acid derivatives useful in the treatment of autoimmune and inflammatory disorders” (Arena Pharmaceuticals, Inc., priority 2008, dated 2016)
Values belong to the compound of their own block, whether it stands above or below them.

Key:
[1] = tested on: peripheral blood lymphocyte (PBL) count; assay: Mouse peripheral lymphocyte lowering (PLL) assay; assay type: in vivo; conditions: male BALB/c mice, 5 hours post-dose, vs vehicle
Protocol: (§1) Male BALB/c mice (Charles River Laboratories, Wilmington, Mass.) were housed four per cage and maintained in a humidity-controlled (40 to 60%) and temperature-controlled (68 to 72° F.) facility on a 12 h:12 h light/dark cycle (lights on at 6:30 am) with free access to food (Harlan Teklad, Orange, Calif., Rodent Diet 8604) and water. Mice were allowed one week of habituation to the animal facility before testing.
(§2) Mice were given an oral dose of Compound 5, Compound 7 or dosing vehicle (0.5% methylcellulose) in a total volume of 10 mL/kg. Peripheral blood samples were collected at 5 hours post-dose. The mice were anesthetized with isoflurane and blood was collected via cardiac puncture. A complete cell count (CBC), including lymphocyte count, was obtained using a CELL-DYN® 3700 (Abbott Laboratories, Abbott Park, Ill.) instrument. Results are presented in FIGS. 1 and 2, in which peripheral blood lymphocyte (PBL) count is shown for the 5 hour group.
as §2, with “given a 1.00 mg/kg” for “given an”, “of the 2nd enantiomer of compound 12 (isolated after resolution of compound 12 by HPLC, with a retention time of 13.9 min per the conditions reported in Example 1.29)” for “of Compound 5, Compound 7”, “(0.5% methylcellulose in sterile water)” for “(0.5% methylcellulose)”, “in FIG. 7,” for “in FIGS. 1 and 2,”

S1P3 receptor = S1P3 receptor (Homo sapiens, UniProt Q99500); conditions: attributed to agonism of the S1P3 receptor; cited from earlier work
[2] = tested on: experimental autoimmune myasthenia gravis (EAMG); conditions: prophylactic oral administration, 1 mg/kg, three times a week, C57BL/6 mice; cited from earlier work
S1P1 receptor = target: T1, S1P1 receptor (Homo sapiens, UniProt P21453); assay: HTRF assay for direct cAMP measurement (S1P1 agonism); assay type: cell-based; conditions: recombinant CHO-K1 cells stably transfected with S1P1 receptors; decrease of cAMP
T1 construct: expressed in transfected cells; host or cells: CHO-K1 (ATCC CCL-61), stably transfected
Text: Compounds were screened for agonists of the S1P1 receptor (e.g., human S1P1 receptor) using the HTRF® assay for direct cAMP measurement (Gabriel et al., Assay and Drug Development Technologies, 1:291-303, 2003) and recombinant CHO-K1 cells stably transfected with S1P1 receptors. CHO-K1 cells were obtained from ATCC® (Manassas, Va.; Catalog # CCL-61). An agonist of the S1P1 receptor was detected in the HTRF® assay for direct cAMP measurement as a compound which decreased cAMP concentration. HTRF® assay also was used to determine EC50 values for S1P1 receptor agonists.
HTRF® assay kit was purchased from Cisbio-US, Inc. (Bedford, Mass.; Catalog #62AM4PEC). The HTRF® assay supported by the kit is a competitive immunoassay between endogenous cAMP produced by the CHO-K1 cells and tracer cAMP labeled with the dye d2. The tracer binding is visualized by a monoclonal anti-cAMP antibody labeled with Cryptate. The specific signal (i.e., fluorescence resonance energy transfer, FRET) is inversely proportional to the concentration of unlabeled cAMP in the standard or sample.
The fluorescence ratio (665 nm/620 nm) of the standards (0.17 to 712 nM cAMP) included in the assay was calculated and used to generate a cAMP standard curve according to the kit manufacturer's instructions. The fluorescence ratio of the samples (test compound or compound buffer) was calculated and used to deduce respective cAMP concentrations by reference to the cAMP standard curve.
The HTRF® assay was carried out using a two-step protocol essentially according to the kit manufacturer's instructions, in 20 μL total volume per well in 384-well plate format (ProxiPlates; PerkinElmer, Fremont, Calif.; catalog #6008280). […] The plate was then further incubated at room temperature for 1 hour, after which the assay plate was read.
HTRF® readout was accomplished using a PHERAstar (BMG LABTECH Inc., Durham, N.C.) or EnVision™ (PerkinElmer, Fremont Calif.) microplate reader.

[3] = tested on: peripheral blood lymphocyte (PBL) count; assay: Rat peripheral lymphocyte lowering (PLL) assay; assay type: in vivo; conditions: male Sprague-Dawley rats, 1.00 mg/kg oral dose, 5 hours post-dose, vs vehicle; FIG. 8
Protocol: as §1, with “Sprague-Dawley rats (7 weeks of age at start of study)” for “BALB/c mice”, “Laboratories)” for “Laboratories, Wilmington, Mass.)”, “two” for “four”, “(40-60%)” for “(40 to 60%)”, “(68-72°” for “(68 to 72°”, “Rats” for “Mice”
Rats were given a 1.00 mg/kg oral dose of the 2nd enantiomer of compound 12 (isolated after resolution of compound 12 by HPLC, with a retention time of 13.9 min per the conditions reported in Example 1.29) or dosing vehicle (0.5% methylcellulose in sterile water) in a total volume of 1.00 mL/kg. Peripheral blood samples were collected at 5 hours post-dose. Blood was collected via indwelling catheter. A complete cell count (CBC), including lymphocyte count, was obtained using a CELL-DYN® 3700 (Abbott Laboratories, Abbott Park, Ill.) instrument. Results are presented in FIG. 8, in which peripheral blood lymphocyte (PBL) count is shown for the 5 hour group.

MOG-induced EAE = assay: MOG-induced experimental autoimmune encephalomyelitis (EAE) in mice; assay type: in vivo, mouse; conditions: female C57BL/6 mice, oral once a day day 3 to day 21, 0.3, 1 and 3 mg/kg; FIG. 10
Protocol: as §1, with “Female C57BL/6” for “Male BALB/c”, “(8 to 10 weeks of age at start of study) (Jackson Laboratory, Bar Harbor, Me.)” for “(Charles River Laboratories, Wilmington, Mass.)”, “(40-60%)” for “(40 to 60%)”, “(68-72°” for “(68 to 72°”
Mice were immunized subcutaneously, 50 μL per hind flank, with a total of 100 μg MOG35-55 peptide emulsified 1:1 with Complete Freund's adjuvant containing 4 mg/mL heat-killed Mycobacterium tuberculosis. […]
Severity of disease symptoms was scored as follows (in increasing order of severity): 0=normal; 1=limp tail OR hind limb weakness; 2=limp tail AND limb weakness/weakness of 2 or more limbs; 3=severe limb weakness or single limb paralysis; 4=paralysis of 2 or more limbs; 5=death.
Mice were dosed orally, with vehicle or the 2nd enantiomer of compound 12 (isolated after resolution of compound 12 by HPLC, with a retention time of 13.9 min per the conditions reported in Example 1.29), once a day from day 3 until day 21. […] Mice were monitored daily from day 7 onward for disease symptoms. After the last dose on day 21, disease progression was monitored daily for 2 more weeks.

[4] = Cardiac telemetry / bradycardia assay in the rat; assay type: in vivo; conditions: male Sprague-Dawley rats, oral, vehicle PEG400, heart rate over a 120 min period; FIG. 11
Protocol: Male Sprague-Dawley rats (250-300 g at time of surgery) were implanted by Charles River Laboratories (Wilmington, Mass.) with cardiac transmitting devices (Data Sciences PhysioTel C50-PXT) into the peritoneal space, with a pressure-sensing catheter inserted into the descending aorta. Rats are allowed at least one week to recover. Rats were housed in individual cages and maintained in a humidity-controlled (30-70%) and temperature-controlled (20-22° C.) facility on a 12 h:12 h light/dark cycle (lights on at 7:00 am) with free access to food (Harlan-Teklad, Orange, Calif., Rodent Diet 8604) and water. Rats were allowed one week of habituation to the animal facility before testing.
The implanted transmitting devices transmitted continuous measurements of blood pressure (systolic, diastolic, mean arterial, pulse), heart rate, body temperature, and motor activity in freely moving conscious animals. […] Telemetry recording occurred over a 21-h period, starting at noon and continuing until 9:00 am the following day. […]
By way of illustration and not limitation, the rats were administered vehicle (PEG 400) and the 2nd enantiomer of compound 12 (isolated after resolution of compound 12 by HPLC, with a retention time of 13.9 min per the conditions reported in Example 1.29) and heart rate was then measured over a 120 min period.

mean ankle diameter = assay: Collagen-induced arthritis in rats (ankle diameter); assay type: in vivo, rat; conditions: female Lewis rats, collagen injections day 0 and 6, p.o. q.d. day 0-16, 0.3, 1 and 3 mg/kg; FIG. 9
Protocol: Female Lewis rats were used in this study. Acclimated animals were anesthetized with isoflurane and given the first collagen injection (day 0). On day 6, they were anesthetized again for the second collagen injection. Collagen was prepared by making a 4 mg/mL solution in 0.01 N acetic acid. Equal volumes of collagen and incomplete Freund's adjuvant were emulsified by hand mixing until a bead of this material held its form when placed in water. Each animal received 300 μL of the mixture each time, spread over 3 subcutaneous sites on the back.
Treatment (p.o., q.d., 5 mL/kg dosing volume) began on day 0 and continued through day 16 with vehicle or compounds given at 24 h intervals. Rats were weighed on days 0, 3, 6 and 9 through 17 and caliper measurements of the ankles taken on days 9 through 17. The 2nd enantiomer of compound 12 (isolated after resolution of compound 12 by HPLC, with a retention time of 13.9 min per the conditions reported in Example 1.29) was dosed at 0.3, 1 and 3 mg/kg.

T1 sequence (P21453 whole entry): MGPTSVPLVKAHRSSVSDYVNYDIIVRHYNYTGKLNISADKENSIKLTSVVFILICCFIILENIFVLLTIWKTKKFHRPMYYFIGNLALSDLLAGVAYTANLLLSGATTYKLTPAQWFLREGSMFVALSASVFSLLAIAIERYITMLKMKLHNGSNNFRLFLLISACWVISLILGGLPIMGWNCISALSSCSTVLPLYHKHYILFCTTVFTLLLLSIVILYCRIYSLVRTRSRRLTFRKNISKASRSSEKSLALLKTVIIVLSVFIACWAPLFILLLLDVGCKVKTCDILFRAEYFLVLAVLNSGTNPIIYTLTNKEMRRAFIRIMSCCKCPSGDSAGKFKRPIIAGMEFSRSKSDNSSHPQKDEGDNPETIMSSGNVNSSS
Chain of S1P3 receptor (Q99500 whole entry): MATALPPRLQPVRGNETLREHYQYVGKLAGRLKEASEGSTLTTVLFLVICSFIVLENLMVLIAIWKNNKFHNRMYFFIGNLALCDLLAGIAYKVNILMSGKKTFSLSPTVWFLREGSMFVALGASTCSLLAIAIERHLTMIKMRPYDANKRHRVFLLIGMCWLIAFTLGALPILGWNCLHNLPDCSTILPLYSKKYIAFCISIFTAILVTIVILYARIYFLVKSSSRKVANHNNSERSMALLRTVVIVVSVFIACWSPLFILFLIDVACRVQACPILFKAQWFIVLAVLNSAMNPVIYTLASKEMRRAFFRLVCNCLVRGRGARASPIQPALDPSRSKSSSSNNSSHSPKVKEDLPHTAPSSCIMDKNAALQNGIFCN

SMILES: N#Cc1cc(COc2ccc3[nH]c4c(c3c2)CCC4CC(=O)O)ccc1OC(F)(F)F (stereo not drawn) [Compound 7, 2-(7-(3-cyano-4-(trifluoromethoxy)benzyloxy)-1,2,3,4-tetrahydrocyclopenta[b]indol-3-yl)acetic acid]
activity for inducing PBL lowering (lymphopenia) ([1]; oral dose, FIGS. 1 and 2): exhibited activity for inducing PBL lowering (lymphopenia)

SMILES: CCCCCCCCc1ccc(CCC(N)(CO)CO)cc1 [FTY720]
adverse event in clinical trials (S1P3 receptor): transient asymptomatic bradycardia
development of EAMG [2]: completely prevented

EC50 (S1P1 receptor): 0.026 µM
SMILES: O=C(O)CC1CCc2c1[nH]c1ccc(OCc3cc(C(F)(F)F)cc(C(F)(F)F)c3)cc21 (stereo not drawn) [Compound 10, 2-(7-(3,5-bis(trifluoromethyl)benzyloxy)-1,2,3,4-tetrahydrocyclopenta[b]indol-3-yl)acetic acid]

EC50 (S1P1 receptor): 0.009 µM
SMILES: O=C(O)CC1CCc2c1[nH]c1ccc(OCc3ccc(C(F)(F)F)cc3C(F)(F)F)cc21 (stereo not drawn) [Compound 8, 2-(7-(2,4-bis(trifluoromethyl)benzyloxy)-1,2,3,4-tetrahydrocyclopenta[b]indol-3-yl)acetic acid]

EC50 (S1P1 receptor): 0.016 µM
SMILES: N#Cc1cc(COc2ccc3[nH]c4c(c3c2)CCC4CC(=O)O)cc(OC(F)(F)F)c1 (stereo not drawn) [Compound 4, 2-(7-(3-cyano-5-(trifluoromethoxy)benzyloxy)-1,2,3,4-tetrahydrocyclopenta[b]indol-3-yl)acetic acid]

SMILES: O=C(O)C[C@H]1CCc2c1[nH]c1ccc(OCc3ccc(C4CCCC4)c(C(F)(F)F)c3)cc21 [2nd enantiomer of compound 12, (R)-2-(7-(4-cyclopentyl-3-(trifluoromethyl)benzyloxy)-1,2,3,4-tetrahydrocyclopenta[b]indol-3-yl)acetic acid]
activity for inducing PBL lowering (lymphopenia) ([1]; 1.00 mg/kg oral dose, FIG. 7): exhibited activity for inducing PBL lowering (lymphopenia)
activity for inducing PBL lowering (lymphopenia) [3]: exhibited activity for inducing PBL lowering (lymphopenia)
reduction of severity of disease symptoms (clinical score) in EAE (MOG-induced EAE): exhibited activity in the mouse EAE assay
reduction of heart rate (bradycardia) [4]: no or substantially no reduction of heart rate
reduction of mean ankle diameter (mean ankle diameter): exhibited activity for reducing mean ankle diameter

SMILES: CC(C)Oc1ccc(COc2ccc3[nH]c4c(c3c2)CCC4CC(=O)O)cc1C#N (stereo not drawn) [Compound 5, 2-(7-(3-cyano-4-issopropoxybenzyloxy)-1,2,3,4-tetrahydrocyclopenta[b]indol-3-yl)acetic acid]
activity for inducing PBL lowering (lymphopenia) ([1]; oral dose, FIGS. 1 and 2): exhibited activity for inducing PBL lowering (lymphopenia)
